The source of these data is PubChem BioAssay (NCI).

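Method: 48-hour compound exposure of cells in 96-well plates, five concentrations, linear interpolation of endpoints. The concentration for 50% growth inhibition is given as GI50. TGI: total growth inhibition.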

What all share (assay): growth of human tumour cells (NCI), 48 h
For assay [1], the system named is COLO 205 colon.
Assay [2] deals with SF-295 CNS.
The test system of assay [3] is SR leukemia.
For assay [4], the system named is HT29 colon.
Assay [5] concerns HOP-62 NSCLC.
In assay [6] the test system is HL-60(TB) leukemia.
For assay [7], the system named is SK-OV-3 ovarian.
Assay [8] has as its system CCRF-CEM leukemia.

As for `COc1c(OC(C)=O)ccc(/C=C2\N=C(C)OC2=O)c1[N+](=O)[O-]`, the TGI in assay [1], in assay [2], in assay [3], in assay [4], in assay [5] and in assay [6] was over 100 µM throughout. In addition, the TGI in assay [7] and in assay [8] was over 100 µM in each case.

Regarding `C/C(=N\NC(=S)Nc1ccc(C(=O)O)cc1)c1ccccn1`, the TGI was 34.3 µM in assay [1]; over 100 µM in assay [2]; 56.3 µM in assay [3]; over 100 µM in assay [4]; over 100 µM in assay [5]; 52.5 µM in assay [6]. The same compound registered a TGI in assay [8] of over 100 µM.

On to `CCOC(=O)C1C=C2O[C@@H]3OC4(CCCCC4)O[C@@H]3C2[C@H]2C(=O)C=CC(=O)[C@@]12C(=O)OC` (some centres undefined), for which the TGI in assay [1] was 22.4 µM; in assay [2] it was 32.6 µM; in assay [3], 6.71 µM; in assay [4], 19.4 µM; in assay [5] it was 36.3 µM; in assay [6] it was 5.83 µM. In addition, the TGI in assay [7] is 32.2 µM; in assay [8], 9.94 µM.

In the case of `CCOC(=O)Cc1c(Cc2[nH]c(C(=O)OCc3ccccc3)c(CC(=O)OCC)c2CC(=O)OCC)[nH]c(C(=O)OCc2ccccc2)c1CC(=O)OCC`, the TGI in assay [1], in assay [2], in assay [3], in assay [4], in assay [5] and in assay [6] was over 100 µM each time. Further, the TGI in assay [7] and in assay [8] was over 100 µM in each case.

Regarding `CCCCN(CCCC)C(=O)C(=O)CC(=O)c1ccc(Br)cc1`, the TGI in assay [1], in assay [2], in assay [4], in assay [5], in assay [6] and in assay [7] was over 100 µM in each case. The TGI in assay [8] was over 100 µM.

On to `N[C@H]1C2C3CC4C5CC(C42)C1(c1ccccc1)C53` (some centres undefined), for which the TGI in assay [1], in assay [2], in assay [3], in assay [4], in assay [5] and in assay [6] was over 100 µM in each case. The TGI in assay [7] and in assay [8] was over 100 µM throughout.

`Cc1cc(C)nc(NS(=O)(=O)c2ccc(Nc3c4ccccc4nc4c(C(=O)Nc5ccc(S(N)(=O)=O)cc5)cccc34)cc2)n1`: the TGI in assay [1] was over 100 µM; in assay [2] it was over 100 µM; in assay [4], over 100 µM; in assay [5], over 100 µM; in assay [7] it was 75.5 µM; in assay [8], over 100 µM.

Regarding `Cc1c(NC(=O)C(=O)N=NC(=O)c2ccncc2)c(O)c2ccccc2c1O`, the TGI in assay [1] is 32.3 µM; in assay [2], 23.3 µM; in assay [3], over 36.4 µM; in assay [4] it was 44.9 µM; in assay [5], 40.7 µM; in assay [6], over 67.5 µM. The TGI in assay [7] was over 88.9 µM; in assay [8] it was over 87 µM.

Turning to `CCOC(=O)c1cccc(=O)c(C(=O)OCC)c1`, the TGI in assay [4] is over 100 µM; in assay [5], over 100 µM; in assay [6], 62.1 µM; in assay [7] it was over 100 µM; in assay [8] it was 65.9 µM.

Regarding `O=C1C2=C(c3ccccc31)C(c1cccc(Cl)c1)NC(=S)N2` (centres undefined), the TGI in assay [1], in assay [2], in assay [4], in assay [5], in assay [6] and in assay [7] was over 100 µM in each case. The same compound gave a TGI in assay [8] of over 100 µM.

Regarding `CC(=O)Oc1c(C)n(CCCl)ccc1=O`, the TGI in assay [1], in assay [2], in assay [3], in assay [4], in assay [5] and in assay [6] was over 100 µM each time. The TGI in assay [7] and in assay [8] was over 100 µM in each case.

In the case of `COc1ccc(-c2oc3cc(O)c(OC)c(O)c3c(=O)c2OC2OC(CO)C(O)C(O)C2O)cc1` (centres undefined), the TGI in assay [1], in assay [2], in assay [4], in assay [6], in assay [7] and in assay [8] was over 100 µM each time.

In the case of `C/C(=N\N(C)C)c1sc(-n2nc(-c3ccccc3)cc2-c2ccccc2)nc1C`, the TGI in assay [1], in assay [2], in assay [3], in assay [4], in assay [5] and in assay [6] was over 100 µM each time. Besides, the TGI in assay [7] and in assay [8] was over 100 µM in each case.

Regarding `CCOC(=O)/N=c1\ss/c(=N\C(=S)N(C)C)n1-c1ccccc1`, the GI50 in assay [1], in assay [6] and in assay [7] was over 100 µM each time. For the same compound, the TGI in assay [1], in assay [2], in assay [4], in assay [5], in assay [6] and in assay [7] was over 100 µM throughout. In assay [8], this compound had a TGI of over 100 µM.

As to `CC1=COC(=O)c2ccccc2N1`, the TGI in assay [1], in assay [2], in assay [3], in assay [4], in assay [5] and in assay [6] was over 100 µM in each case. Moreover, the TGI in assay [7] and in assay [8] was over 100 µM each time.

For `COc1ccc(/C=C2/CCCC/C2=N/O)cc1`, the TGI in assay [1], in assay [2], in assay [4], in assay [5], in assay [6] and in assay [7] was over 100 µM in each case. The compound also registered a TGI in assay [8] of over 100 µM.
